In patent US20060116389A1, “Antibacterial oxazolidinones” (ASTRA ZENECA AB, priority 2002, published 2006):
≈ marks a conversion by molar mass, not a printed value.

Assays:
Assay type in all cases: cell-based
[1] = system: Linezolid Resistant Streptococcus pneumoniae; experiment: MIC, agar supplemented with 5% defibrinated horse blood; settings: agar + 5% horse blood, 48 hours
Description: (§1) The following results were obtained on a standard in-vitro test system. The activity is described in terms of the minimum inhibitory concentration (MIC) determined by the agar-dilution technique with an inoculum size of 10^4 CFU/spot. Typically, compounds are active in the range 0.01 to 256 μg/ml.
(§2) Streptococci and enterococci were tested on agar supplemented with 5% defibrinated horse blood, an inoculum of 10^4 CFU/spot and an incubation temperature of 37° C. in an atmosphere of 5% carbon dioxide for 48 hours—blood is required for the growth of some of the test organisms. Fastidious Gram negative organisms were tested in Mueller-Hinton broth, supplemented with hemin and NAD, grown aerobically for 24 hours at 37° C., and with an innoculum of 5×10^4 CFU/well.

Enterococcus faecium = experiment: as above; settings: agar + 5% horse blood, 10^4 CFU/spot, 37° C., 5% carbon dioxide, 48 hours
Description: as §1, §2

Streptococcus pneumoniae = experiment: as above; settings: agar + 5% horse blood, 10^4 CFU/spot, 37° C., 5% carbon dioxide, 48 hours
Description: as §1, §2

[2] = system: Staphylococcus aureus MSQS (methicillin sensitive and quinolone sensitive); experiment: MIC, agar-dilution, standard in-vitro test system; settings: 10^4 CFU/spot, 37° C., 24 hours
Description: as §1
(§3) Staphylococci were tested on agar, using an inoculum of 10^4 CFU/spot and an incubation temperature of 37° C. for 24 hours—standard test conditions for the expression of methicillin resistance.

[3] = system: Staphylococcus aureus MRQR (methicillin resistant and quinolone resistant); experiment: MIC, agar-dilution, standard in-vitro test system; settings: 10^4 CFU/spot, 37° C., 24 hours
Description: as §1, §3

Haemophilus influenzae = experiment: MIC, Mueller-Hinton broth supplemented with hemin and NAD; settings: 24 hours, 37° C., 5×10^4 CFU/well
Description: as §1, §2

Moraxella catarrhalis = experiment: as above; settings: 24 hours, 37° C., 5×10^4 CFU/well
Description: as §1, §2

MIC [1]: 2 µg/mL
MIC (Enterococcus faecium): 0.5 µg/mL
MIC (Streptococcus pneumoniae): 0.13 µg/mL
MIC [2]: 0.5 µg/mL (≈ 1.15 µM)
MIC [3]: 0.5 µg/mL (≈ 1.15 µM)
MIC (Haemophilus influenzae): 64 µg/mL (≈ 147 µM)
MIC (Moraxella catarrhalis): 0.5 µg/mL (≈ 1.15 µM)
Structure (SMILES): Cn1nnc(-c2ccc(-c3ccc(N4C[C@H](CNc5ccon5)OC4=O)cc3F)cn2)n1 [Example 2]
